Measured values published in PMC12677652, “Procyanidin B3 and Its Derivatives Alleviate Neuronal Injury by Targeting G3BP1 for Ischemic Stroke Therapy” (Advanced Science, 2025).

Experiments:
G3BP1‐bound mRNA = assay: RIP assay with RT-qPCR of G3BP1-bound mRNAs; type: cell-based; conditions: 50 µM, 6 h of reperfusion following OGD
Procedure: Total RNA from HT22 cells was extracted with Trizol. The concentration and purity of RNA were determined by Nanodrop (Thermo Scientific, USA), and RNA was reverse transcribed by PrimeScript Reverse Transcription Master Mix (TaKaRa, Japan). Then RT‐qPCR was performed using Hieff qPCR SYBR Green Master Mix (Yeasen, China). The expression level of the transcripts was normalized to the constitutive expression level of β‐actin. The primers used for amplification are listed in Table S4 (Supporting Information).
RIP assay was performed with the BeyoRIP RIP Assay Kit (Beyotime, China) using the manufacturer's protocol. HT22 cells were washed with PBS and centrifuged, then the cell was resuspended in complete lysis buffer. 3–5 µg antibody was pre‐bound to protein A/G agarose beads in NT2 wash buffer for 0.5 h and then incubated with 270 µL cell lysates for 4 h at 4 °C with rotation, and RNA was eluted from the beads by incubating with 100 µL elution buffer for 0.5 h at 55 °C. The eluted RNA was dissolved with RNase‐free water. Enrichment of certain fragments was determined by RT‐qPCR.

G3BP1 = assay: Immunoblotting of G3BP1 protein level; type: cell-based
Procedure: Cells and tissues were homogenized in RIPA buffer (Beyotime, China) containing protease inhibitors (Biovision, USA) on ice for 30 min. After centrifugation (13000 r min^−1, 4 °C) for 10 min, the resulting supernatant was collected. The protein concentrations were determined by a BCA protein assay kit (Thermo Scientific, USA). After separating a 10% sodium dodecyl sulfate (SDS)‐polyacrylamide gel, protein on the gel was then transferred onto nitrocellulose membranes (Merck, USA), which were blocked with 5% bovine serum albumin for 1 h to prevent non‐specific binding. Then, the anti‐caspase 3 antibody (catalog no. 9662, Cell Signaling Technology, USA), anti‐Bcl‐2 antibody (catalog no. GTX100064, GeneTex, USA), anti‐G3BP1 antibody (catalog no. 66486‐1‐Ig, Proteintech, China), anti‐β‐tubulin antibody (catalog no. 66240‐1‐Ig, Proteintech, China), and anti‐β‐actin antibody (catalog no. 66009‐1‐Ig, Proteintech, China) were used for treating the membrane overnight at 4 °C. Bound antibodies were detected with the species‐appropriate horseradish peroxidase‐labeled secondary antibody (Jackson ImmunoResearch, USA) using ECL reagents (ShareBio, China). Protein‐specific signals were detected using a Bio‐Rad Imager (Bio‐Rad, USA), and the bands were quantified by densitometric analysis software (ImageJ). β‐tubulin or β‐actin was used as a loading control.

tMCAO mice = assay: Long-term neurological recovery after tMCAO; type: in vivo; conditions: 48 mg/kg daily, i.p.
Procedure: The modified neurological severity score was applied according to the previous report.^[ [63] ^] The range of the neurological function score extends from 0 to 18 points. A higher score represents more severe neurological deficits. In the rotarod test, according to the previous report,^[ [64] ^] mice were tested under the accelerating rotor mode with acceleration from 5 to 20 rpm. The final score for statistical analysis was expressed as the mean time that mice could remain on the rod.

bEnd.3 cells = assay: In vitro BBB model, Transwell transport apical-to-basolateral; type: in vitro ADME; conditions: 100 µM, apical-to-basolateral, 30, 60, and 120 min
Procedure: The Transwell filters (0.4 µm pore) were used to evaluate the crossing capacity of the BBB of selected compounds. The basolateral side of the wells was filled by DMEM (Gibco, USA) with 10% FBS. Then, bEnd.3 cells were seeded on the apical side of the semi‐permeable filter in a humidified atmosphere. The culture medium was changed on alternate days. To verify if the cell monolayer formed junctions, the resistance was daily monitored by determining the trans‐endothelial electrical resistance. The resistance value of an empty filter was subtracted from each measurement. After reaching the confluence, bEnd.3 monolayer cells were washed three times with PBS, and the basolateral compartment was filled with Hanks' Balanced Salt Solution (HBSS). The permeability experiments across the cell monolayer were performed in the apical‐to‐basolateral direction. Transport experiments were assessed by placing the compounds, prepared in HBSS, on the upper side of the monolayers (100 µM/300 µL). At different time points (30, 60, and 120 min), 500 µL samples were taken from the basolateral side, and to replace the withdrawn volume, the same volume of preheated HBSS was added. The amount of cellular drug uptake was measured using a Waters e2695 system (Waters, USA).

Oc1cc(O)c2c(c1)O[C@H](c1ccc(O)c(O)c1)[C@@H](O)[C@@H]2c1c(O)cc(O)c2c1O[C@H](c1ccc(O)c(O)c1)[C@@H](O)C2 [Compound 1, procyanidin B3]
level of G3BP1‐bound mRNA (G3BP1‐bound mRNA): higher
protein level of G3BP1 (G3BP1): did not perturb the protein level of G3BP1

CC(C)c1c(O)cc(O)c2c1O[C@H](c1ccc(O)c(O)c1)[C@@H](O)[C@@H]2c1c(O)cc(O)c2c1O[C@H](c1ccc(O)c(O)c1)[C@@H](O)C2 [Compound 6c, 8‐Isopropyl‐(+)‐Catechin‐(4α,8)‐(+)‐Catechin]
body weight (tMCAO mice): mitigated the tendency toward weight loss
modified neurological severity scores (tMCAO mice): lower scores than the tMCAO group
rotarod test (tMCAO mice; at the end of treatment): showed improvements compared with the tMCAO group
transport efficiency (bEnd.3 cells): better than that of 1
